Measured values reported in paper PMC9021566, “Design, Synthesis, and Antitumor Activity Study of All-Hydrocarbon-Stapled B1-Leu Peptides” (Frontiers in Chemistry, 2022).
Bridge positions count the residues as written; N and C are the ends. Square brackets hold non-standard residues; d marks the D form. Ends that are not written are not given here. Peptide text beside a SMILES is read from it. R8 = C=CCCCCCC[C@@](C)(N)C(=O)O; S5 = C=CCCC[C@](C)(N)C(=O)O

What was measured:
[1] = On-resin ring-closing olefin metathesis (all-hydrocarbon stapling, S5/S5 i,i+4 or R8/S5 i,i+7), first-generation Grubbs catalyst (3 equiv); then Fmoc removal, TFA cleavage, RP-HPLC; conditions: the molecule shown is the open-chain precursor, 21-membered ring, 1,2-dichloroethane (dry), 25.0 °C, 4.0 h
[2] = Circular dichroism spectroscopy, percent helicity; format: physicochemical; conditions: CD, TFE/water (1:1), 0.1 mg/ml, 20°C
Protocol: Peptides were dissolved in TFE/water (1:1, v/v, 0.1 mg/ml). CD data were recorded in 10-mm path length, a quartz cell at 20°C. Percent helicity was calculated by the following equation ([Wang et al., 2006]). α=[θ]222/[θ]max×100% [θ]222 is the molar ellipticity of 222 nm; [θ]max = (−44,000 + 250T) (1 − k/n), where k = 4, n is the numbers of amino acids, and T = 20°C.

[3] = molecular target: α-chymotrypsin (Bos taurus, UniProt P00766); experiment: in vitro; conditions: for Degradation during protease exposure: 1 h
Protocol: Peptides in DMSO solution (1 mM) was mixed with α-chymotrypsin in PBS buffer (0.5 ng/μl) containing 2 mM CaCl2 and incubated at 37°C. The percentage of peptide was measured by HPLC at 0, 5, 10, 20, 30, and 60 min([Wang et al., 2020]).

[4] = test system: MCF-7; conditions: read-out: IC50 MCF-7; CCK-8, 48 h
Protocol: (§1) MCF-7, HUH-7, U87, and Nthy-ori 3-1 cell lines were used to test cell viability. All the cell lines were cultured in a humid environment at 37°C with 5% CO2. The anticancer activity of B1 and its derivatives were evaluated by the CCK-8 reagent. All peptides tested were dissolved in DMSO and finally added to each well in 1‰ volume. The cells were seeded in a 96-well plate at a number of 5 × 10^3 cells per well. After overnight incubation, they were administered with different concentrations of peptides. Ten percent CCK-8 solution without FBS was added to each well after 48 h. After incubation at 37°C for 30 min, the optical density (OD) at 450 nm was recorded with a microplate reader ([Deng et al., 2015]).

[5] = test system: U87; conditions: read-out: IC50 U87; CCK-8, 48 h
Protocol: as §1

[6] = test system: HUH-7; conditions: read-out: IC50 HUH-7; CCK-8, 48 h
Protocol: as §1

[7] = test system: rabbit red blood cells; conditions: 4% rabbit red blood cells, 1 h, 37°C
Protocol: Two hundred microliters of 4% rabbit red blood cells in a 96-well plate was added different concentrations of peptides. After 1 h of incubation at 37°C and following centrifugation, the release of hemoglobin was monitored by the absorbance at 450 nm of supernatant. Zero hemolysis was determined without adding any other reagents, and 100% hemolysis was determined in 10% Triton X-100. Hemolysis percentage hemolysis was calculated as: (Apeptide − Ablank)/(ATriton − Ablank) × 100%. All hemolysis determinations were conducted in three repeated experiments ([Deng et al., 2015]).

[8] = α-chymotrypsin (0.5 ng/μl) in PBS buffer

Compound | ring closure, overall yield [1] [%] | Helicity (%) [2] [%] | half-life ([3]; α-chymotrypsin) [min] | IC50 [4] [µM] | IC50 [5] [µM] | IC50 [6] [µM] | half-life [3, 8] [min] | HC50, half hemolysis concentration [7] [µM] | Degradation during protease exposure ([3]; α-chymotrypsin)
C=CCCC[C@](C)(NC(=O)[C@H](CCCNC(=N)NS(=O)(=O)c1c(C)c(C)c2c(c1C)CC(C)(C)O2)NC(=O)[C@H](Cc1ccccc1)NC(=O)[C@H](Cc1ccccc1)NC(=O)[C@](C)(CCCC=C)NC(=O)[C@H](CCCCNC(=O)OC(C)(C)C)NC(=O)[C@H](Cc1ccccc1)NC(=O)[C@H](CCCNC(=N)NS(=O)(=O)c1c(C)c(C)c2c(c1C)CC(C)(C)O2)NC(=O)[C@H](CCCCNC(=O)OC(C)(C)C)NC(=O)[C@@H](NC(=O)OCC1c2ccccc2-c2ccccc21)C(C)C)C(=O)N[C@@H](CC(C)C)C(=O)N[C@@H](CCCCNC(=O)OC(C)(C)C)C(=O)N[C@@H](CCCCNC(=O)OC(C)(C)C)C(=O)N[C@@H](CC(C)C)C(=O)N[C@H](C(N)=O)C(C)C | 66 |  |  |  |  |  |  |  | 
C=CCCC[C@](C)(NC(=O)[C@H](Cc1ccccc1)NC(=O)[C@H](Cc1ccccc1)NC(=O)[C@H](CCCCNC(=O)OC(C)(C)C)NC(=O)[C@H](CCCCNC(=O)OC(C)(C)C)NC(=O)[C@H](Cc1ccccc1)NC(=O)[C@H](CCCNC(=N)NS(=O)(=O)c1c(C)c(C)c2c(c1C)CC(C)(C)O2)NC(=O)[C@H](CCCCNC(=O)OC(C)(C)C)NC(=O)[C@@H](NC(=O)OCC1c2ccccc2-c2ccccc21)C(C)C)C(=O)N[C@@H](CCCCNC(=O)OC(C)(C)C)C(=O)N[C@@H](CC(C)C)C(=O)N[C@@H](CCCCNC(=O)OC(C)(C)C)C(=O)N[C@@](C)(CCCC=C)C(=O)N[C@@H](CC(C)C)C(=O)N[C@H](C(N)=O)C(C)C | 68 |  |  |  |  |  |  |  | 
C=CCCC[C@](C)(NC(=O)[C@H](Cc1ccccc1)NC(=O)[C@H](Cc1ccccc1)NC(=O)[C@H](CCCCNC(=O)OC(C)(C)C)NC(=O)[C@](C)(CCCC=C)NC(=O)[C@H](Cc1ccccc1)NC(=O)[C@H](CCCNC(=N)NS(=O)(=O)c1c(C)c(C)c2c(c1C)CC(C)(C)O2)NC(=O)[C@H](CCCCNC(=O)OC(C)(C)C)NC(=O)[C@@H](NC(=O)OCC1c2ccccc2-c2ccccc21)C(C)C)C(=O)N[C@@H](CCCCNC(=O)OC(C)(C)C)C(=O)N[C@@H](CC(C)C)C(=O)N[C@@H](CCCCNC(=O)OC(C)(C)C)C(=O)N[C@@H](CCCCNC(=O)OC(C)(C)C)C(=O)N[C@@H](CC(C)C)C(=O)N[C@H](C(N)=O)C(C)C | 64 |  |  |  |  |  |  |  | 
CC(C)C[C@H](NC(=O)[C@H](CCCCN)NC(=O)[C@H](CCCNC(=N)N)NC(=O)[C@H](Cc1ccccc1)NC(=O)[C@H](Cc1ccccc1)NC(=O)[C@]1(C)CCC/C=C\CCC[C@](C)(NC(=O)[C@@H](N)C(C)C)C(=O)N[C@@H](CCCNC(=N)N)C(=O)N[C@@H](Cc2ccccc2)C(=O)N[C@@H](CCCCN)C(=O)N1)C(=O)N[C@@H](CCCCN)C(=O)N[C@@H](CCCCN)C(=O)N[C@@H](CC(C)C)C(=O)N[C@H](C(N)=O)C(C)C [B1-L-1, VS5RFKS5FFRKLKKLV-NH2] (H-V[S5]RFK[S5]FFRKLKKLV-NH2; staple (Z) 2-6) |  | 47.2 | > 60 |  |  |  |  |  | 
CC(C)C[C@H](NC(=O)[C@H](CCCCN)NC(=O)[C@]1(C)CCCC=CCCC[C@](C)(NC(=O)[C@H](Cc2ccccc2)NC(=O)[C@H](CCCNC(=N)N)NC(=O)[C@H](CCCCN)NC(=O)[C@@H](N)C(C)C)C(=O)N[C@@H](CCCCN)C(=O)N[C@@H](Cc2ccccc2)C(=O)N[C@@H](Cc2ccccc2)C(=O)N1)C(=O)N[C@@H](CCCCN)C(=O)N[C@@H](CCCCN)C(=O)N[C@@H](CC(C)C)C(=O)N[C@H](C(N)=O)C(C)C [B1-L-2, VKRFS5KFFS5KLKKLV-NH2] (H-VKRF[S5]KFF[S5]KLKKLV-NH2; staple 5-9; N-terminus assumed) |  | 35.5 |  | 6.59 ± 0.42 | 8.86 ± 1.43 | 6.18 ± 0.63 | > 60 | >80 | 
CC(C)C[C@H](NC(=O)[C@H](CCCCN)NC(=O)[C@H](CCCCN)NC(=O)[C@H](CC(C)C)NC(=O)[C@]1(C)CCCC=CCCC[C@](C)(NC(=O)[C@H](CCCCN)NC(=O)[C@H](Cc2ccccc2)NC(=O)[C@H](CCCNC(=N)N)NC(=O)[C@H](CCCCN)NC(=O)[C@@H](N)C(C)C)C(=O)N[C@@H](Cc2ccccc2)C(=O)N[C@@H](Cc2ccccc2)C(=O)N[C@@H](CCCNC(=N)N)C(=O)N1)C(=O)N[C@H](C(N)=O)C(C)C [B1-L-3, VKRFKS5FFRS5LKKLV-NH2] (H-VKRFK[S5]FFR[S5]LKKLV-NH2; staple 6-10; N-terminus assumed) |  | 37 |  | 5.48 ± 0.89 | 3.59 ± 1.2 | 5.96 ± 0.54 | > 60 | >80 | 
CC(C)C[C@@H]1NC(=O)[C@H](CCCCN)NC(=O)[C@@](C)(NC(=O)[C@H](Cc2ccccc2)NC(=O)[C@H](Cc2ccccc2)NC(=O)[C@H](CCCCN)NC(=O)[C@H](CCCCN)NC(=O)[C@H](Cc2ccccc2)NC(=O)[C@H](CCCNC(=N)N)NC(=O)[C@H](CCCCN)NC(=O)[C@@H](N)C(C)C)CCCC=CCCC[C@@](C)(C(=O)N[C@@H](CC(C)C)C(=O)N[C@H](C(N)=O)C(C)C)NC(=O)[C@H](CCCCN)NC1=O [B1-L-4, VKRFKKFFS5KLKS5LV-NH2] (H-VKRFKKFF[S5]KLK[S5]LV-NH2; staple 9-13; N-terminus assumed) |  | 35 |  | 15.2 ± 1.02 | 17.9 ± 3.23 | 13.4 ± 1.92 | > 60 | >80 | 
CC(C)C[C@H](NC(=O)[C@H](CCCCN)NC(=O)[C@]1(C)CCCC=CCCCCCC[C@@](C)(NC(=O)[C@@H](N)C(C)C)C(=O)N[C@@H](CCCNC(=N)N)C(=O)N[C@@H](Cc2ccccc2)C(=O)N[C@@H](CCCCN)C(=O)N[C@@H](CCCCN)C(=O)N[C@@H](Cc2ccccc2)C(=O)N[C@@H](Cc2ccccc2)C(=O)N1)C(=O)N[C@@H](CCCCN)C(=O)N[C@@H](CCCCN)C(=O)N[C@@H](CC(C)C)C(=O)N[C@H](C(N)=O)C(C)C [B1-L-5, VR8RFKKFFS5KLKKLV-NH2] (H-V[R8]RFKKFF[S5]KLKKLV-NH2; staple 2-9; N-terminus assumed) |  | 24.8 |  | 14 ± 0.73 | 14.3 ± 2.35 | 13.8 ± 1.53 | > 60 | >80 | 
CC(C)C[C@H](NC(=O)[C@H](CCCCN)NC(=O)[C@]1(C)CCCC=CCCCCCC[C@@](C)(NC(=O)[C@H](Cc2ccccc2)NC(=O)[C@H](CCCNC(=N)N)NC(=O)[C@H](CCCCN)NC(=O)[C@@H](N)C(C)C)C(=O)N[C@@H](CCCCN)C(=O)N[C@@H](Cc2ccccc2)C(=O)N[C@@H](Cc2ccccc2)C(=O)N[C@@H](CCCNC(=N)N)C(=O)N[C@@H](CCCCN)C(=O)N[C@@H](CC(C)C)C(=O)N1)C(=O)N[C@H](C(N)=O)C(C)C [B1-L-6, VKRFR8KFFRKLS5KLV-NH2] (H-VKRF[R8]KFFRKL[S5]KLV-NH2; staple 5-12; N-terminus assumed) |  | 39.8 |  | 5.15 ± 1.04 | 4.58 ± 0.93 | 5.89 ± 0.43 | 55.3 | >80 | 
CC(C)C[C@@H]1NC(=O)[C@H](CCCCN)NC(=O)[C@H](CCCNC(=N)N)NC(=O)[C@H](Cc2ccccc2)NC(=O)[C@H](Cc2ccccc2)NC(=O)[C@](C)(NC(=O)[C@H](CCCCN)NC(=O)[C@H](Cc2ccccc2)NC(=O)[C@H](CCCNC(=N)N)NC(=O)[C@H](CCCCN)NC(=O)[C@@H](N)C(C)C)CCCCCCC=CCCC[C@@](C)(C(=O)N[C@@H](CC(C)C)C(=O)N[C@H](C(N)=O)C(C)C)NC(=O)[C@H](CCCCN)NC1=O [B1-L-7, VKRFKR8FFRKLKS5LV-NH2] (H-VKRFK[R8]FFRKLK[S5]LV-NH2; staple 6-13; N-terminus assumed) |  | 31.6 |  | 13.4 ± 1.22 | 12.7 ± 1.63 | 7.49 ± 1.2 | > 60 | >80 | 
VKRFKKFFRKLKKLV-NH2 [B1-Leu, VKRFKKFFRKLKKLV-NH2] |  | 23.5 |  | 13.4 ± 0.53 | 16.2 ± 3.32 | 11.8 ± 0.72 | 8.5 | >80 | completely degraded
VKRFKKFFRKLKKSV-NH2 [B1, VKRFKKFFRKLKKSV-NH2, reference compound] |  | 8.9 |  | > 50 | > 50 | > 50 | 8.3 | >80 | completely degraded
